Laboratory results taken from patent publication US20260193227A1, “THERAPEUTIC COMPOUNDS AND METHODS” (UNIVERSITY OF IOWA RESEARCH FOUNDATION, priority 2022, published 2026).
Residue numbers refer to the chain shown, from its start. Entries after “also recorded” stand apart in the source; their conditions may differ.

What was measured:
RAD52-ssDNA interaction = molecular target: T1, RAD52-ssDNA interaction (Homo sapiens, UniProt P43351); assay: FRET-based inhibition of the RAD52-ssDNA interaction; assay type: binding; conditions: for effect on the RAD52-ssDNA complex / capacity to inhibit RAD52: FRET titration; for selectivity towards RAD52 over RPA: in vitro FRET-based assays
T1 construct: 6xHis; made in house
T1 sequence (P43351 1-418): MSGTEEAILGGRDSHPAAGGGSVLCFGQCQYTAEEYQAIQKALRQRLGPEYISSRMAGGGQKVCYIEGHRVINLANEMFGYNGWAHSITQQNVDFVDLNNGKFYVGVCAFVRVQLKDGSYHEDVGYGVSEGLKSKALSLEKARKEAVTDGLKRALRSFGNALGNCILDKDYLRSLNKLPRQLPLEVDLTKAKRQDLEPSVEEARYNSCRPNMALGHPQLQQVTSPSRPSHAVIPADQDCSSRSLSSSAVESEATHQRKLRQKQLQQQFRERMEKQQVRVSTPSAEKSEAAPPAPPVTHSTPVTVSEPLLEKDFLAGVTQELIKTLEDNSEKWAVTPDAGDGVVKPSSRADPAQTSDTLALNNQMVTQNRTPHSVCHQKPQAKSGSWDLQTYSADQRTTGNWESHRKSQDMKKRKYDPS
Procedure: (§1) Proteins: The 6×His-tagged human RAD52 proteins (wild type and mutants) and untagged human RPA were expressed and purified as previously described in (Hengel S R, eLife. 2016; 5; Grimme J M, et al., Nucleic Acids Res. 2010; 38(9):2917-30; and Henricksen L A, et al., The Journal of biological chemistry. 1994; 269(15):11121-32). RPA and RAD52 protein concentrations were determined by measuring absorbance at 280 nm using extinction coefficients of 88,830 M^−1 cm^−1 and 40,470 M^−1 cm^−1, respectively.
(§2) FRET-based DNA binding and inhibition assays: FRET-based that monitor the RAD52-ssDNA, RPA-ssDNA and RAD52-RPA-ssDNA binding were carried out as previously described (Hengel S R, eLife. 2016; 5; Grimme J M, et al., Nucleic Acids Res. 2010; 38(9):2917-30; and Grimme J M, Spies M. FRET-based assays to monitor DNA binding and annealing by Rad52 recombination mediator protein. Methods in molecular biology (Clifton, NJ). 2011; 745:463-83) using Cary Eclipse Spectrofluorimeter (Agilent) at 25° C., in 5 mm quartz cuvettes, and in buffer containing 30 mM Tris-Acetate (pH 7.5) and 1 mM DTT. Cy3 dye was excited at 530 nm and its emission was monitored at 565 nm. Emission of Cy5 acceptor fluorophore excited through the energy transfer from Cy3 donor is monitored at 660 nm simultaneously with emission of Cy3 dye. Both the excitation and the emission slits were set to 10 nm. All experiments were carried out using 1 nM (molecules) Cy3-dT30-Cy5 ssDNA. The optimal concentrations of the RAD52 (6 nM) and RPA (1 nM) proteins were selected by titrating the respective protein into 1 nM Cy3-dT30-Cy5 solution, and chosen based on the largest separation of the FRET values corresponding to the protein bound and free DNA.
(§3) The inhibition of the RAD52-ssDNA, RPA-ssDNA and RAD52-RPA-ssDNA complexes was evaluated by titrating each compound to the respective complex, measuring Cy3 and Cy5 fluorescence, and calculating FRET as previously described (Hengel, S. R., et al., eLife, 5).
(§4) Spectral properties of many compounds overlapped with the Cy3 and Cy5 fluorescence. To correct the calculated FRET values for the compound signal, the fluorogenic compounds were titrated into buffer and into solution of 1 nM Cy3-dT30-Cy5. For all tested compounds, the change in the signal in the Cy3 and Cy5 channels with and without Cy3/Cy5-labeled DNA present was the same. […] To account for the dye fluorescence, for each compound concentration, the apparent change in FRET of the ssDNA in the presence the compound was subtracted from the respective FRET signal of the RAD52-ssDNA, RPA-ssDNA or RAD52-ssDNA-RPA complex at the same inhibitor concentration. The IC50 values were calculated by fitting the corrected FRET data to the four-parameter dose response model using GraphPad Prism. All data are shown as average for at least three independent experiments ±standard deviation. The IC50 values are presented with their respective fitting error.

RPA-ssDNA interaction = molecular target: T2, RPA-ssDNA interaction (Homo sapiens, UniProt P27694); assay: FRET-based inhibition of the RPA-ssDNA interaction; assay type: binding; conditions: FRET titration
T2 construct: made in house
Procedure: as §1, §2, §3, §4

RPA-ssDNA-RAD52 complex = molecular target: T3, RPA-ssDNA-RAD52 complex (Homo sapiens, UniProt P43351); assay: FRET-based inhibition of the RPA-ssDNA-RAD52 complex; assay type: binding; conditions: for effect on the RPA-ssDNA-RAD52 complex: FRET titration
T3 construct: 6xHis; made in house
T3 sequence (P43351 1-418): T1 sequence (P43351 1-418)
Procedure: as §1, §2, §3, §4

[1] = molecular target: T4, RAD52 IB mutant (K152A/R153A) (Homo sapiens, UniProt P43351, K152A/R153A); assay: FRET-based inhibition of ssDNA binding, inner binding defective RAD52 mutant
T4 construct: 6xHis; made in house
T4 sequence (P43351 1-418 K152A/R153A): T1 sequence (P43351 1-418) with K152A, R153A
Procedure: as §1
as §2, with “Both the excitation and the emission slits were set to 10 nm. All experiments were carried out using 1 nM (molecules) Cy3-dT30-Cy5 ssDNA. The optimal concentrations of the RAD52 (6 nM) and RPA (1 nM) proteins were selected by titrating the respective protein into 1 nM Cy3-dT30-Cy5 solution, and chosen based on the largest separation of the FRET values corresponding to the protein bound and free DNA.” left out
Spectral properties of many compounds overlapped with the Cy3 and Cy5 fluorescence. […]

[2] = test system: RAD52 OB mutant (K102A/K103A/K169A/R173A); assay: FRET-based inhibition of ssDNA binding, outer binding defective RAD52 mutant; parameters: species or system human; conditions: for fold lower IC50 (increased efficiency) against OB mutant compared to IB mutant: Z56: wild type and IB mutant within the fitting error
Procedure: as §1, §2, §3
as §4, with “All data are shown as average for at least three independent experiments ±standard deviation. The IC50 values are presented with their respective fitting error.” left out

T2 sequence (P27694 whole entry): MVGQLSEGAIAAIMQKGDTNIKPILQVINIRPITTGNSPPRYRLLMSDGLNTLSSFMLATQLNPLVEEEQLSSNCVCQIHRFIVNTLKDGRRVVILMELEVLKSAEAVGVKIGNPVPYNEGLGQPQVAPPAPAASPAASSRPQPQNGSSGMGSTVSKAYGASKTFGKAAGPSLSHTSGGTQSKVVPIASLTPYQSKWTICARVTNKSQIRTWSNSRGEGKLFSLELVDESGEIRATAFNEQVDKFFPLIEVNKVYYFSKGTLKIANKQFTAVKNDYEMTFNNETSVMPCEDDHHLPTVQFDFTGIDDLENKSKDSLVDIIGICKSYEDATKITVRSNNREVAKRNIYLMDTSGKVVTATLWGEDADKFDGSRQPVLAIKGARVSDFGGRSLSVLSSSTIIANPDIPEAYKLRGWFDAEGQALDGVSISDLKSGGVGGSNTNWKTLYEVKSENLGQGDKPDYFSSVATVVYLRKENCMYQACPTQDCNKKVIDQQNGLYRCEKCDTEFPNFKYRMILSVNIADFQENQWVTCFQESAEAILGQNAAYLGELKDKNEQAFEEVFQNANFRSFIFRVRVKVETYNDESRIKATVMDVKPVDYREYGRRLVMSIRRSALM
T2 sequence (P15927 whole entry partner): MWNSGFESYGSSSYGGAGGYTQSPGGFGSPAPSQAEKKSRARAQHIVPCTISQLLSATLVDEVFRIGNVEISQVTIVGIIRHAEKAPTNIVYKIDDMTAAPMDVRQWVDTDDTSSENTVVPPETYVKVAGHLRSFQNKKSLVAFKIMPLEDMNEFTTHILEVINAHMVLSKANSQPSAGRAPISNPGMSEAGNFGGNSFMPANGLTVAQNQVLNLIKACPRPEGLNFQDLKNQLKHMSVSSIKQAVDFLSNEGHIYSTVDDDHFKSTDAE
T2 sequence (P35244 whole entry partner): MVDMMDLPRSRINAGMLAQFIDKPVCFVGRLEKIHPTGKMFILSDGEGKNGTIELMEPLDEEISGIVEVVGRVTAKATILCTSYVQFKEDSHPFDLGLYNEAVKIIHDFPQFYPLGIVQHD

COc1ccccc1NS(=O)(=O)c1cc(C(=O)O)ccc1C [Example 8]
effect on the RAD52-ssDNA complex / capacity to inhibit RAD52 (RAD52-ssDNA interaction): FRET decrease
selectivity towards RAD52 over RPA (RAD52-ssDNA interaction; listed as Z56): specific to RAD52 over RPA in vitro; also recorded: shows selectivity towards RAD52 over RPA
effect on the RPA-ssDNA complex (RPA-ssDNA interaction; listed as Z56): does not change the FRET values of the RPA-ssDNA complex; also recorded: no effect on the RPA-ssDNA complex
effect on the RPA-ssDNA-RAD52 complex (RPA-ssDNA-RAD52 complex): decreases the FRET values of the RPA-ssDNA-RAD52 complex
fold lower IC50 for the RPA-ssDNA-RAD52 complex than for the RAD52-ssDNA complex (RPA-ssDNA-RAD52 complex; wild type RAD52): 6 fold
inhibition of ssDNA binding to IB mutant RAD52 [1]: able to inhibit
inhibition of ssDNA binding to OB mutant RAD52 [2]: able to inhibit
fold lower IC50 (increased efficiency) against OB mutant compared to IB mutant [2]: 6 fold

O=C(Cn1cccc([N+](=O)[O-])c1=O)c1c[nH]c2ccccc12 [Example 1]
effect on the RAD52-ssDNA complex / capacity to inhibit RAD52 (RAD52-ssDNA interaction): FRET decrease
selectivity towards RAD52 over RPA (RAD52-ssDNA interaction; listed as Z99): more promiscuous also inhibiting RPA; also recorded: more promiscuous, inhibited RPA in vitro
effect on the RPA-ssDNA complex (RPA-ssDNA interaction): yields FRET values corresponding to the free ssDNA
effect on the RPA-ssDNA-RAD52 complex (RPA-ssDNA-RAD52 complex): yields FRET values corresponding to the free ssDNA
inhibition of ssDNA binding to IB mutant RAD52 [1]: able to inhibit
inhibition of ssDNA binding to OB mutant RAD52 [2]: able to inhibit
fold lower IC50 (increased efficiency) against OB mutant compared to IB mutant [2]: 6 fold
